Measured values: patent US20030073837A1, “3-HETEROARYLIDENYL-2-INDOLINONE COMPOUNDS FOR MODULATING PROTEIN KINASE ACTIVITY AND FOR USE IN CANCER CHEMOTHERAPY” (priority 1998, published 2003)
Where two headings read alike, the source gives them in different places.

Legend:
FLK-1 receptor = assay: Cellular-based assay of receptor phosphorylation following VEGF (FLK-1 ELISA); assay type: cell-based
[1] = test system: endothelial cells induced by VEGF; assay: In vitro proliferation of endothelial cells induced by VEGF (HUV-EC-C assay); assay type: cell-based, human
Protocol: The following protocol may also be used to measure a compound's activity against PDGF-R, FGF-R, VEGF, aFGF or Flk-1/KDR, all of which are naturally expressed by HUV-EC cells.
1. Wash and trypsinize HUV-EC-C cells (human umbilical vein endothelial cells, (American Type Culture Collection; catalogue no. 1730 CRL). Wash with Dulbecco's phosphate-buffered saline (D-PBS; obtained from Gibco BRL; catalogue no. 14190-029) 2 times at about 1 ml/10 cm^2 of tissue culture flask. Trypsinize with 0.05% trypsin-EDTA in non-enzymatic cell dissociation solution (Sigma Chemical Company; catalogue no. C-1544). The 0.05% trypsin is made by diluting 0.25% trypsin/1 mM EDTA (Gibco; catalogue no. 25200-049) in the cell dissociation solution. Trypsinize with about 1 ml/25-30 cm^2 of tissue culture flask for about 5 minutes at 37° C. After cells have detached from the flask, add an equal volume of assay medium and transfer to a 50 ml sterile centrifuge tube (Fisher Scientific; catalogue no. 05-539-6).
2. Wash the cells with about 35 ml assay medium in the 50 ml sterile centrifuge tube by adding the assay medium, centrifuge for 10 minutes at approximately 200×g, aspirate the supernatant, and resuspend with 35 ml D-PBS. Repeat the wash two more times with D-PBS, resuspend the cells in about 1 ml assay medium/15 cm^2 of tissue culture flask. […]

[2] = test system: a variety of tumor cell lines; assay: Direct inhibitory effect on tumor cell lines in vitro; assay type: cell-based; conditions: concentrations up to 50 μM
[3] = test system: a variety of tumor cell lines subcutaneously implanted; assay: Subcutaneous tumor implants in immunocompromised mice; assay type: in vivo
Excerpt: (§1) The ability of human tumors to grow as xenografts in athymic mice (e.g., Balb/c, nu/nu) provides a useful in vivo model for studying the biological response to therapies for human tumors. Since the first successful xenotransplantation of human tumors into athymic mice, (Rygaard and Povlsen, 1969, Acta Pathol. Microbial. Scand. 77:758-760), many different human tumor cell lines (e.g., mammary, lung, genitourinary, gastrointestinal, head and neck, glioblastoma, bone, and malignant melanomas) have been transplanted and successfully grown in nude mice. The following assays may be used to determine the level of activity, specificity and effect of the different compounds of the present invention. […]
(§2) Cell lines are grown in appropriate medium (for example, MEM, DMEM, Ham's F10, or Ham's F12 plus 5%-10% fetal bovine serum (FBS) and 2 mM glutamine (GLN)). […] All cell lines are routinely subcultured twice a week and are negative for mycoplasma as determined by the Mycotect method (Gibco).
(§3) Cells are harvested at or near confluency with 0.05% Trypsin-EDTA and pelleted at 450×g for 10 min. […] Tumor growth is measured over 3 to 6 weeks using venier calipers. Tumor volumes are calculated as a product of length×width×height unless otherwise indicated. P values are calculated using the Students t-test. […]

human melanoma cells = assay: Dose response study, human melanoma cells subcutaneous in athymic mice; assay type: in vivo; conditions: daily administration, doses as low as 1 mg/kg/day
Excerpt: as §1, §2, §3

tumor growth = assay: Less frequent intraperitoneal dosing studies in athymic mice; assay type: in vivo; conditions: for tumor growth inhibition: intraperitoneal
Excerpt: as §1, with “invention. Three general types of assays are useful for evaluating compounds: cellular/catalytic, cellular/biological and in vivo. The object of the cellular/catalytic assays is to determine the effect of a compound on the ability of a TK to phosphorylate tyrosines on a known substrate in a cell. The object of the cellular/biological assays is to determine the effect of a compound on the biological response stimulated by a TK in a cell. The object of the in vivo assays is to determine the effect of a compound in an animal model of a particular disorder such as cancer.” for “invention.”
as §2, §3

[4] = test system: tumor cells implanted under the serosa of the colon; assay: Tumor cells surgically implanted under the serosa of the colon; assay type: in vivo, mice
Protocol: 8 week old nude mice (female) (Simonsen Inc.) are used as experimental animals. Implantation of tumor cells can be performed in a laminar flow hood. For anesthesia, Xylazine/Ketamine Cocktail (100 mg/kg ketamine and 5 mg/kg Xylazine) are administered intraperitoneally. A midline incision is done to expose the abdominal cavity (approximately 1.5 cm in length) to inject 10^7 tumor cells in a volume of 100 μl medium. The cells are injected either into the duodenal lobe of the pancreas or under the serosa of the colon. The peritoneum and muscles are closed with a 6-0 silk continuous suture and the skin is closed by using wound clips. Animals are observed daily.
After 2-6 weeks, depending on gross observations of the animals, the mice are sacrificed, and the local tumor metastases to various organs (lung, liver, brain, stomach, spleen, heart, muscle) are excised and analyzed (measurement of tumor size, grade of invasion, immunochemistry, in situ hybridization determination, etc.).

[5] = test system: ATP binding site of the receptor tyrosine kinase; assay: Washout experiments in vitro
[6] = In vivo intravenous pharmacokinetics, mice
[7] = In vivo intravenous pharmacokinetics, rats
[8] = In vivo intravenous pharmacokinetics, dogs
[9] = Subchronic toxicokinetic study (28 day toxicity study), rats; assay type: in vivo
[10] = Subchronic toxicokinetic study (28 day toxicity study), dogs; assay type: in vivo
[11] = Whole body autoradiography and excretion after intravenous injection; assay type: in vivo; conditions: in 24 hours, 14C-labeled
[12] = test system: β-450 liver enzymes (CYP1A2 and CYP3A4); assay: In vitro metabolism studies; assay type: in vitro ADME
[13] = Phase I dose escalation studies, toxicity; assay type: in vivo; conditions: patients treated with up to 52 weeks of treatment
[14] = Phase 1 study pharmacokinetics in patients with advanced malignancies; conditions: for half-life: plasma, intravenous
[15] = test system: metastatic colorectal cancer; conditions: single agent; cited from earlier work
[16] = cited from earlier work
[17] = test system: advanced metastatic colorectal cancer; conditions: cited from earlier work

In the case of `Cc1cc(C)c(/C=C2\C(=O)Nc3ccccc32)[nH]1` [3-[(2,4-dimethylpyrrol-5-yl)methylidenyl]-2-indolinone], the “receptor phosphorylation that follows the interaction of VEGF with its receptor” value (FLK-1 receptor) is reported as “inhibit the receptor phosphorylation”, the IC50 ([1]; Homo sapiens, Endothelial cell, read-out: IC50, inhibition of in vitro proliferation of endothelial cells induced by VEGF) is reported as ~70 nM and the “exposure to drug after which detectable activity is first observed” value ([1]; time-dependent increase in potency) is reported as 5 min. The “direct inhibitory effects on tumor cell lines” value [2] was “no direct inhibitory effects”, the “suppression of tumor growth with delayed administration” value ([3]; administration delayed until tumors approximately 50 mm^3, versus start on Day 1) was “equivalent efficacy” and the “inhibition of tumor growth” value ([3]; daily intraperitoneal dosing 12.5-25 mg/kg/day for 28 days) was 30-80%. The “inhibition of human melanoma cells” value (human melanoma cells) was “dose-dependent inhibition”, the “tumor growth inhibition and toxicity with interval dosing” value (tumor growth; dosing at 3 to 4 day intervals) was “sufficient to inhibit tumor growth without toxicity” and the tumor growth inhibition (tumor growth; daily dosing) was 68%. For the same compound, the tumor growth inhibition (tumor growth; twice weekly dosing for four weeks) was 77%, the “growth of tumor cells implanted under the serosa of the colon” value ([4]; daily administration 25 mg/kg/day) was “significantly inhibit the growth” and the tumor vascularization ([4]; pale appearance of tumors in treated animals) was “decreased vascularization”. For the same compound, the target half-life [5] was 96 h, the “elimination of the parent compound from the circulation” value (shortened to “elimination of the parent compound”) [6] was “rapid elimination” and the “elimination of the parent compound” value ([7]; intravenous) was “rapid elimination”. The “elimination half-life versus dose” value ([7]; intravenous 29.5-97.9 mg/m^2) was “linearly increases as the dose increased”, the “increase of AUC” value ([7]; intravenous 29.5-97.9 mg/m^2, with a 3-fold increase in dose) was 10 fold and the “elimination of the parent compound” value [8] was “rapid elimination”. The “accumulation in plasma upon repeated administration” value [9] was “did not accumulate in plasma”, the “accumulation in plasma upon repeated administration” value [10] was “did not accumulate in plasma” and the excreted in feces [11] was 72%. The excreted in urine [11] was 16%, the total dose recovered [11] was 92 % of the total administered dose and the metabolizing enzymes [12] was “metabolized via β-450 liver enzymes, most probably via CYP1A2 and CYP3A4”. For the same compound, the cumulative toxicity [13] was “no cumulative toxicity was observed”, the “increase of the rate of clearance” value ([14]; after eight infusions, all patients) was 50-300% and the total distributive volume ([14]; calculated by a one-compartment model) was 53.6 ± 11.3 L. For the same compound, the clearance versus dose ([14]; doses 4.4-190 mg/m^2) was “independent of dose”, the “AUC and CMAX versus dose” value ([14]; doses tested in humans to date) was “increase linearly with dose” and the “individual clearance calculated based on BSA” value ([14]; human, in vivo) was 41.8±22.1 L/hour/m2. It also gave a half-life ([14]; human, alpha half-life, mean, doses 4.4-190 mg/m^2) of 5.8 ± 1.9 min, a half-life ([14]; human, beta half-life or elimination phase, mean, doses 4.4-190 mg/m^2) of 43.4 ± 21.9 min and a half-life ([14]; human, beta half-life or elimination phase, range, doses 4.4-190 mg/m^2) of 10 to 111 min. It also gave a half-life ([14]; human, half-life in humans, doses 4.4-190 mg/m^2, preliminary) of ~60 min.

For `O=c1[nH]cc(F)c(=O)[nH]1` [fluorouracil, 5-fluoro-2,4 (1H,3H)-pyrimidinedione], the median survival [15] is given as “six”, the response rate [15] is given as “about 15%” and the excreted in urine ([16]; in vivo) is given as “Less than 10%”. The plasma levels ([16]; within 2 hours, intravenous bolus 370 to 720 mg/m^2) was “below 1 μM”, the median survival time ([17]; fluorouracil alone 500 mg/m^2) was 7.7 months and the response rate ([17]; fluorouracil alone 500 mg/m^2 daily for 5 days every 28-35 days) was 10%.
